Laboratory results as given in patent publication US9988348B1, “Synthesis and antimicrobial use of a trithiocarbonate derivative” (KING SAUD UNIVERSITY, priority 2017, dated 2018).
In brackets after ≈: the same amount, converted by molar mass. Several values for one entry are separate records, joined by “and”; a condition that tells them apart may be missing. Equal values may be shown once.

Tests used:
Assay type in all cases: cell-based
[1] = system: Aspergillus fumigatus AUMC 8794; assay: disk diffusion assay, inhibition zone; settings: A. fumigatus; 4 mg/disk; soluble water compound 4
Method: (§1) To evaluate antimicrobial activity of the compound 4, synthesized in our laboratory as novel anti-bacterial and anti-fungal agents, the inhibition zone diameter (mm) and the minimal inhibitory concentration were determined according to (Andrews 2001; Hudzicki 2009). The test carried out on several clinical microorganisms included Gram positive bacteria (Staphylococcus aureus ATCC and Streptococcus mutans ATCC 35668), Gram negative bacteria (Escherichia coli ATCC 25922, Salmonella typhimurium ATCC 14028 and Neisseria meningitides ATCC 1302); yeasts (Candid albicans ATCC 60193, Cryptococcus neoformans Wild strain and Candida parapsilosus ATCC 22019) and molds (Aspergillus fumigatus AUMC 8794, Penicillum chrysogenum AUMC 9476 and Fusarium sp.)
(§2) The clinical microorganisms were cultivated at least three times on suitable culture medium and incubating conditions before susceptibility test. The concentration of microbial inoculation suspensions in sterile sodium chloride solution (0.89%) were adjusted to 0.65 at 620 nm by spectrophotometer. […]
(§3) After that, the disks were dried at 25° C. under sterile conditions by safety biological cabinet. A Mueller-Hinton agar (MHA) (Scharlau Microbiogy, Spain) and a potato dextrose agar (PDA) (Scharlau, Spain) were used to perform antibacterial and antifungal test respectively. The media were prepared according to manufacturer's guidelines. To prepare one liter of MHA and one liter of PDA, 21 grams of MHA and 39 grams of PDA were dissolved in one liter of sterile distilled water, followed by sterilization at 121° C. for 15 minutes by an autoclave (HL-321, Taiwan). The sterilized media were poured in sterile plastic Petri dishes at 50° C. The plates were allowed to let the medium solidify at room temperature. 0.1 ml of microbial inoculation suspensions were spread on dried surface of medium and were kept at 25° C. for 5-10 minutes. The compound 4 and standard antimicrobial drugs discs (Table 1) were dispensed on the surface of inoculated media. The tested bacteria and fungi were incubated at 37±1° C. for 19-22 hours and at 25±1 for 48-72 hours respectively. After the incubation, the diameter of inhibition zone (millimeter) resulting from the biological activity of compound were recorded.

[2] = system: Candid albicans ATCC 60193; assay: disk diffusion assay, inhibition zone; settings: C. albicans; 4 mg/disk; soluble water compound 4
Method: as §1, §2, §3

[3] = system: Candida parapsilosus ATCC 22019; assay: disk diffusion assay, inhibition zone; settings: C. parasilosus; 4 mg/disk; soluble water compound 4
Method: as §1, §2, §3

[4] = system: Cryptococcus neoformans Wild strain; assay: disk diffusion assay, inhibition zone; settings: C. neoformasn; 4 mg/disk; soluble water compound 4
Method: as §1, §2, §3

[5] = system: Escherichia coli ATCC 25922; assay: disk diffusion assay, inhibition zone; settings: E. coli; 4 mg/disk; soluble water compound 4
Method: as §1, §2, §3

Fusarium sp. [6] = assay: disk diffusion assay, inhibition zone; settings: Fusarium sp.; 4 mg/disk; soluble water compound 4
Method: as §1, §2, §3

[7] = system: Penicillum chrysogenum AUMC 9476; assay: disk diffusion assay, inhibition zone; settings: P. chrysoginum; 4 mg/disk; soluble water compound 4
Method: as §1, §2, §3

[8] = system: Salmonella typhimurium ATCC 14028; assay: disk diffusion assay, inhibition zone; settings: Sa. typhimurium; 4 mg/disk; soluble water compound 4
Method: as §1, §2, §3

[9] = system: Staphylococcus aureus ATCC; assay: disk diffusion assay, inhibition zone; settings: S. aureus; 4 mg/disk; soluble water compound 4
Method: as §1, §2, §3

[10] = system: Streptococcus mutans ATCC 35668; assay: disk diffusion assay, inhibition zone; settings: S. mutans
Method: as §1, §2, §3

[11] = system: Aspergillus fumigatus AUMC 8794; assay: microdilution assay, minimal inhibitory concentration; settings: AUMC8794, A. fumigatus, water-soluble form
Method: as §1
(§4) The minimal inhibitory concentration (MIC) of compound 4 (water-soluble form) was determined by a microdilution assay, using Mueller-Hinton broth (for bacteria) and Potato dextrose broth (for fungi). The compound 4 was dissolved in sterile culture broth (2 mg/mL). Two fold serial dilutions were carried out to obtain concentrations ranging from 2 to 0.008 mg/mL. 95 μL of each dilution were added in 96-well plates, then each well was inoculated with 5 μL of inoculation microbial suspension (5×10^8 colony form unit (CFU)/ml). The plates were incubated at suitable conditions according to tested microorganism. After the incubation, the microbial growth was detected in the wells by p-iodonitrotetrazolium violet (Sigma, USA) reagent. Each well received 20 μL of the reagent (0.5 mg/ml) and was then incubated at 37±1° C. for 30 min. A violet color indicated microbial growth in the well. The minimal inhibitory concentration (mg/ml) of the compound 4 was estimated as the lowest concentration that inhibited microbial growth.

[12] = system: Candid albicans ATCC 60193; assay: as above; settings: Candida albicans, ATCC60193; C. albicans; water-soluble form
Method: as §1, §4

[13] = system: Candida parapsilosus ATCC 22019; assay: as above; settings: ATCC22019, C. parasilosus, water-soluble form
Method: as §1, §4

[14] = system: Cryptococcus neoformans Wild strain; assay: as above; settings: C. neoformasn, water-soluble form
Method: as §1, §4

[15] = system: Escherichia coli ATCC 25922; assay: as above; settings: ATCC25922, E. coli, water-soluble form
Method: as §1, §4

Fusarium sp. [16] = assay: as above; settings: water-soluble form
Method: as §1, §4

[17] = system: Neisseria meningitides ATCC 1302; assay: as above; settings: ATCC1302, N. meningitides, water-soluble form
Method: as §1, §4

[18] = system: Penicillum chrysogenum AUMC 9476; assay: as above; settings: P. chrysoginum; water-soluble form
Method: as §1, §4

[19] = system: Salmonella typhimurium ATCC 14028; assay: as above; settings: Salmonella enterica; Sa. typhimurium; water-soluble form
Method: as §1, §4

[20] = system: Staphylococcus aureus ATCC; assay: as above; settings: S. aureus, water-soluble form
Method: as §1, §4

[21] = system: Streptococcus mutans ATCC 35668; assay: as above; settings: ATCC35668, S. mutans, water-soluble form
Method: as §1, §4

`CCOC(=O)CSC(=S)SCC(=O)OCC` [Compound 4, diethyl 2,2′-(thiocarbonylbis(sulfanediyl))diacetate] was tested, and the Inhibition zone diameter [1] was 34.6 ± 0.5 A mm, the Inhibition zone diameter [2] was 20 ± 1 D mm and the Inhibition zone diameter [3] was 13 ± 1 E mm. The Inhibition zone diameter [4] was 30 mm and 30 ± 1 B mm, the Inhibition zone diameter [5] was 11.6 ± 0.5 E mm and the Inhibition zone diameter (Fusarium sp. [6]) was 30 ± 1 B mm. The Inhibition zone diameter [7] was 30.3 ± .5 B mm, the Inhibition zone diameter [8] was 8.6 ± 0.5 F mm and the Inhibition zone diameter [9] was 10.6 ± 0.5 F* mm. The “biological activity, in words” value [10] was “very good”, the Inhibition zone diameter ([10]; 4 mg/disk, soluble water compound 4) was 20 ± 1 D mm and the MIC [11] was 31.2 µg/mL (≈ 111 µM). The MIC [12] was 62.5 µg/mL (≈ 221 µM), the MIC [13] was 50 µg/mL (≈ 177 µM) and the MIC [14] was 31.2 µg/mL (≈ 111 µM). The MIC [15] was 1000 µg/mL (≈ 3540 µM), the MIC (Fusarium sp. [16]) was 31.2 µg/mL (≈ 111 µM) and the MIC [17] was 62.5 µg/mL (≈ 221 µM). It also gave an MIC [18] of 31.2 µg/mL (≈ 111 µM), an MIC [19] of 2000 µg/mL (≈ 7080 µM) and an MIC [20] of 2000 µg/mL (≈ 7080 µM). It also gave an MIC [21] of 62.5 µg/mL (≈ 221 µM).
